Results on 9 molecules are retold here after ChEMBL document CHEMBL1125312, “Highly potent, orally active diester macrocyclic human renin inhibitors” (J Med Chem, 1992).

SMILES strings stand for the structures.

In series [1] the test system is Rattus norvegicus. Put plainly: Cumulative dose excreted after intravenous administration at 3-4 hours in rats. The format is ADME, organism-based. The settings on record: in vivo.
In series [2] the test system is Rattus norvegicus. Put plainly: Compound was evaluated for the percentage of urine excretion of radioactivity, by male Sprague-Dawley rats after oral administration of compound dose (1 mg/kg) at 24-48 hr. It is filed as ADME, organism-based. The settings on record: in vivo.
The test system of series [3] is Rattus norvegicus. In words: Cumulative dose excreted after intravenous administration at 6-8 hours in rats. The format is ADME, organism-based. The settings on record: in vivo.
Series [4] relates to Rattus norvegicus. In words: Cumulative dose excreted after intravenous administration at 4-6 hours in rats. It is filed as ADME, organism-based. The settings on record: in vivo.
Series [5] has as its system Rattus norvegicus. Put plainly: Cumulative dose excreted after intraduodenal administration at 4-6 hours in rats. The format is ADME, organism-based. The settings on record: in vivo, other.
In series [6] the test system is Rattus norvegicus. In words: Compound was evaluated for the percentage of feces excretion of radioactivity, by male Sprague-Dawley rats after oral administration of compound dose (1 mg/kg) at 0-24 hr. The format is ADME, organism-based. The settings on record: in vivo.
A short description of series [7]: Cumulative dose excreted after intraduodenal administration at 1.0-1.5 hours in rats. It is filed as ADME, organism-based. The settings on record: rat, in vivo.
Series [8] in a line: Cumulative dose excreted after intravenous administration at 0.5-1 hours in rats. The format is ADME, organism-based. The settings on record: rat, in vivo.
Series [9] is described as follows: Cumulative dose excreted after intraduodenal administration at 0-0.5 hours in rats. It is filed as ADME, organism-based. The settings on record: rat, in vivo.
For series [10], the system named is Rattus norvegicus. Put plainly: Compound was evaluated for the percentage of urine excretion of radioactivity, by male Sprague-Dawley rats after intravenous administration of compound dose (1 mg/kg) at 0-24 hr. The format is ADME, organism-based. The settings on record: in vivo.
The nature of series [11]: Cumulative dose excreted after intravenous administration at 1.0-1.5 hours in rats. The format is ADME, organism-based. The settings on record: rat, in vivo.
Series [12] can be described thus: Cumulative dose excreted after intraduodenal administration at 0.5-1.0 hours in rats. The format is ADME, organism-based. The settings on record: rat, in vivo.
Series [13] in a line: Cumulative dose excreted after intraduodenal administration at 1.5-2.0 hours in rats. The format is ADME, organism-based. The settings on record: rat, in vivo.
Series [14] relates to Rattus norvegicus. Put plainly: Cumulative dose excreted after intravenous administration at 1.5-2 hours in rats. The format is ADME, organism-based. The settings on record: in vivo.
The subject of series [15] is Rattus norvegicus. Put plainly: Compound was evaluated for the percentage of feces excretion of radioactivity, by male Sprague-Dawley rats after oral administration of compound dose (1 mg/kg) at 24-48 hr. It is filed as ADME, organism-based. The settings on record: in vivo.
The subject of series [16] is Rattus norvegicus. In words: Cumulative dose excreted after intravenous administration at 2-3 hours in rats. It is filed as ADME, organism-based. The settings on record: in vivo.
Series [17] relates to Rattus norvegicus. In words: Compound was evaluated for the percentage of feces excretion of radioactivity, by male Sprague-Dawley rats after intravenous administration of compound dose (1 mg/kg) at 0-24 hr. It is filed as ADME, organism-based. The settings on record: in vivo.
For series [18], the system named is Rattus norvegicus. Put plainly: Compound was evaluated for the percentage of feces excretion of radioactivity, by male Sprague-Dawley rats after oral administration of compound dose (1 mg/kg) at 48-72 hr. It is filed as ADME, organism-based. The settings on record: in vivo.
Series [19] can be described thus: Cumulative dose excreted after intraduodenal administration at 2-3 hours in rats. It is filed as ADME, organism-based. The settings on record: rat, in vivo.
A short description of series [20]: Cumulative dose excreted after intraduodenal administration at 3-4 hours in rats. The format is ADME, organism-based. The settings on record: rat, in vivo.
Series [21] deals with Rattus norvegicus. Put plainly: Compound was evaluated for the percentage of urine excretion of radioactivity, by male Sprague-Dawley rats after oral administration of compound dose (1 mg/kg) at 0-24 hr. It is filed as ADME, organism-based. The settings on record: in vivo.
Series [22] concerns Rattus norvegicus. Put plainly: Cumulative dose excreted after intravenous administration at 8-24 hours in rats. The format is ADME, organism-based. The settings on record: in vivo.
The nature of series [23]: Cumulative dose excreted after intraduodenal administration at 6-8 hours in rats. It is filed as ADME, organism-based. The settings on record: rat, in vivo.
Series [24] deals with Rattus norvegicus. Put plainly: Compound was evaluated for the percentage of urine excretion of radioactivity, by male Sprague-Dawley rats after oral administration of compound dose (1 mg/kg) at 48-72 hr. The format is ADME, organism-based. The settings on record: in vivo.
The subject of series [25] is Rattus norvegicus. Put plainly: Compound was evaluated for the percentage of urine excretion of radioactivity, by male Sprague-Dawley rats after intravenous administration of compound dose (1 mg/kg) at 24-48 hr. The format is ADME, organism-based. The settings on record: in vivo.
Series [26] relates to Rattus norvegicus. Put plainly: Compound was evaluated for the percentage of feces excretion of radioactivity, by male Sprague-Dawley rats after intravenous administration of compound dose (1 mg/kg) at 24-48 hr. The format is ADME, organism-based. The settings on record: in vivo.
Series [27] has as its target T1, Renin (Homo sapiens, UniProt P00797).
T1 sequence (P00797 whole entry): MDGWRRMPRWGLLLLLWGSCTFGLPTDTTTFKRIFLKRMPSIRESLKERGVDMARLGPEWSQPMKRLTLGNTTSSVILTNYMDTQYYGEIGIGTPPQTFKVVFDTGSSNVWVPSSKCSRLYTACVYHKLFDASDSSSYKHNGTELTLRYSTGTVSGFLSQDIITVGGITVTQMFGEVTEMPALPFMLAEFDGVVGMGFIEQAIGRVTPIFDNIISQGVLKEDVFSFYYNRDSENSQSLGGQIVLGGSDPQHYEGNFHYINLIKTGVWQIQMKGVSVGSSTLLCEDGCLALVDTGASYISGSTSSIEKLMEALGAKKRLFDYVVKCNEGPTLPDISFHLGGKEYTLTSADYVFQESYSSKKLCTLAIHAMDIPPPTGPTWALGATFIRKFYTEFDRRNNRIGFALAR
Put plainly: Inhibitory activity against human renin inhibition (at pH 7.4).

For series [28], the system named is Rattus norvegicus. Put plainly: Cumulative dose excreted after intravenous administration at 0-0.5 hours in rats. It is filed as ADME, organism-based. The settings on record: in vivo.
The subject of series [29] is Rattus norvegicus. In words: Cumulative dose excreted after intraduodenal administration at 8-24 hours in rats. It is filed as ADME, organism-based. The settings on record: in vivo, other.

On to `O=C1CCC[C@H](CN2CCOCC2)OC(=O)[C@H](O)[C@H](CC2CCCCC2)NC(=O)[C@@H](NC(=O)[C@H](Cc2ccccc2)NC2CN3CCC2CC3)CO1` (some centres not stated), for which the Dose excreted worked out at 46.9% in series [1]; 0.7% in series [2]; 47.9% in series [3]; 47.5% in series [4]; 4.3% in series [5]; 81.7% in series [6]. Besides, the Dose excreted in series [7] came out at 3.6%; in series [8], 42.7%; in series [9], 2.4%; in series [10], 18.5%; in [11] it was 44.6%; in series [12] it was 3.3%. Further, the Dose excreted in series [13] came to 3.9%; in series [14] it was 45.5%; in [15], 3.3%; in series [16], 46.4%; in [17] it was 43.5%; in series [18], 0.2%. Further, the Dose excreted in [19] turned out to be 4%; in series [20] it was 4.2%; in [21], 3.1%; in [22], 48.7%; in series [23] it was 4.4%; in series [24] it was 0.3%. Also, the Dose excreted in series [25] was found to be 0.7%; in [26] it was 3.5%; in series [28], 35.7%; in series [29], 4.7%. The molecule further returned an IC50 in series [27] of 0.0013 µM.
Regarding `CCCCC1COC(=O)CC[C@H](NC(=O)C(Cc2ccccc2)NC(=O)OC(C)(C)C)C(=O)N[C@@H](CC2CCCCC2)[C@@H](O)C(=O)O1` (single isomer, unassigned; diastereomer 2), the IC50 in series [27] was 0.2 µM.
On to `CC(C)(C)OC(=O)NC(Cc1ccccc1)C(=O)N[C@H]1COC(=O)CCCC(CN2CCOCC2)OC(=O)[C@H](O)[C@H](CC2CCCCC2)NC1=O` (single isomer, unassigned; diastereomer 2), for which the midpoint of inhibition in series [27], the IC50, lay at 0.17 µM.
In the case of `CC(C)(C)CC1CCCC(=O)OC[C@H](NC(=O)C(Cc2ccccc2)NC(=O)OC(C)(C)C)C(=O)N[C@@H](CC2CCCCC2)[C@@H](O)C(=O)O1` (single isomer, unassigned; diastereomer 2), the IC50 in series [27] came to 1.2 µM.
`CCCCC1CCCC(=O)OC[C@H](NC(=O)C(Cc2ccccc2)NC(=O)OC(C)(C)C)C(=O)N[C@@H](CC2CCCCC2)[C@@H](O)C(=O)O1` (single isomer, unassigned; diastereomer 2): in series [27], the 50% inhibitory concentration (IC50) was determined as 0.18 µM.
For the molecule `CC(C)(C)OC(=O)NC(Cc1ccccc1)C(=O)N[C@H]1COC(=O)CCC(CN2CCOCC2)OC(=O)[C@H](O)[C@H](CC2CCCCC2)NC1=O` (single isomer, unassigned; diastereomer 2), the IC50 in series [27] is 6.4 µM.
Turning to `CC(C)(C)OC(=O)NC(Cc1ccccc1)C(=O)N[C@H]1CCC(=O)OCC(CN2CCOCC2)OC(=O)[C@H](O)[C@H](CC2CCCCC2)NC1=O` (single isomer, unassigned; diastereomer 2), in series [27], the IC50 came out at 20 µM.
`CCN(CC)CC1CCCC(=O)OC[C@H](NC(=O)C(Cc2ccccc2)NC(=O)OC(C)(C)C)C(=O)N[C@@H](CC2CCCCC2)[C@@H](O)C(=O)O1` (single isomer, unassigned; diastereomer 2) yielded an IC50 in series [27] of 0.14 µM.
The same measure, in the same setting: the same measure for `CN(C)CC1CCCC(=O)OC[C@H](NC(=O)C(Cc2ccccc2)NC(=O)OC(C)(C)C)C(=O)N[C@@H](CC2CCCCC2)[C@@H](O)C(=O)O1` (stereo in doubt; 4t): 0.086 µM.
